Measurements as given in a melting point compilation (Tetko et al.; mined from patent text by program, amines drawn as free bases though some values may be those of a salt).

melting point | SMILES
250 to 251 °C | CC(=O)NCc1ccn(-c2cc3c(cc2C(F)(F)F)[nH]c(=O)c(=O)n3CC(=O)O)c1
204 °C | OC1CSC(Oc2cncc(-c3nccs3)c2)C(O)C1O (stereo unspecified)
146 to 148 °C | CCOC(=O)C1(C(=O)O)Cc2cc(OC)c(OC)cc2C1
153 to 156 °C | CS(=O)(=O)c1ccccc1-c1ccc(C(=O)N2Cc3ccc(C(=O)NCc4cccnc4)n3Cc3ccccc32)cc1
193 to 195 °C | O=C(Nc1cn2nc(Sc3nnc4ccccn34)ccc2n1)C1CC1
166 to 169 °C | Nc1c(F)c(-c2ccc(Cl)cc2)nc(C=O)c1Cl
217 to 221 °C | CCN(Cc1ccc2nc(C)[nH]c(=O)c2c1)c1ccc(C(=O)NCc2nccn2Cc2ccccc2)cc1
256 to 259 °C | O=C(Nc1ccc(CN2C(=O)[C@H]3CCC[C@H]3N(C(=O)CN3C(=O)c4ccccc4C3=O)c3ccccc32)cc1)c1cccc(F)c1 (relative stereo)
124 to 127 °C | C=C1C(=CC=C2CCCC3(C)C2CCCC3C(C)CCCC(C)(C)O)CC(O)CC1O (stereo unspecified)
300 to 302 °C | O=c1[nH]c(=O)n(C2CC2)c2nc(S(=O)(O)=S)c(F)cc12
150 °C | Cc1cccc(NC(=O)NCC(=O)N2[C@@H](C(=O)OC(C)(C)C)C[C@@H](C#N)[C@H]2c2ccccc2)c1 (racemic)
115 to 118 °C | CCCc1c(OCc2cccc(C(=O)NC(C)CCCc3cccnc3)c2)ccc(C(C)=O)c1O (stereo unspecified)
119 to 120 °C | CNc1nc(N2CCN(Cc3ccccc3)CC2)ncc1CCO
156 to 158 °C | O=c1cc(CCCCBr)c2ccccc2[nH]1
204 °C | O=C(CN1CCN(CCCC(c2ccc(F)cc2)c2ccc(F)cc2)C(C(=O)O)C1)Nc1c(Cl)cccc1Cl (stereo unspecified)
169 to 171 °C | CS(=O)(=O)Nc1ccc(NC(=O)CN2CCC(Cc3ccc(F)cc3)CC2)cc1
234 to 236 °C | CC(C)Nc1nc(N)nc(-c2ccccc2)c1-c1ccc(=O)n(C(C)C)n1
103 to 104 °C | CCc1cccc2c3c([nH]c12)C(CC)(CC(C)O)OCC3 (stereo unspecified)
193 °C | CCCCCCCCCCCCCCn1c(=O)[nH]c2nc3ccccc3n2c1=O
254 °C | CCNC(=O)C1CCN(Cc2cnc3cc(NC(=O)c4ccc(-c5ccc(F)cc5)cc4)c(C)cc3c2)CC1
138 to 140 °C | COc1ccc(C(C)C)cc1-c1cc(C(=O)NCCc2ccccc2)c(OCc2ccccc2)cc1OCc1ccccc1
205 to 206 °C | COc1ccc(-c2cc(-c3nccs3)c(=O)n(C)c2-c2ccc(C)o2)cc1
123 to 124 °C | O=C(CCc1cccnc1)NC(Cc1c[nH]c2ccccc12)C(=O)CCc1cc(C(F)(F)F)cc(C(F)(F)F)c1 (stereo unspecified)
> 300 °C | O=c1cc2c(n[nH]1)CCc1cc(O)ccc1-2

melting point | SMILES
169 to 172 °C | C=CC1(F)CN(C2CCCC2)c2nc(Nc3ccc(C(=O)NC4CCCNC4)cc3OC)ncc2N(C)C1=O (stereo unspecified)
121 to 122 °C | CC(C)C[C@H](NC(=O)OC(C)(C)C)[C@H](O)c1nccs1
108 to 109 °C | CC(C)(C)OC(=O)NCCNC(=O)c1cccc(Br)n1
167 to 172 °C | CC(=O)Nc1nc(/C=C/C(=O)N2CCN(C(=O)c3cc(C(F)(F)F)cc(C(F)(F)F)c3)[C@H](Cc3c[nH]c4ccccc34)C2)cs1
223 to 224 °C | CCCOc1ccc(F)cc1-c1ccc(C(N)=O)c(=O)[nH]1
195 to 198 °C | O=C1N(Cc2cnc(Cl)s2)c2ccccc2C12COc1cc3c(cc12)OCO3 (stereo unspecified)
71 to 72 °C | COc1cccc(CN2CCc3cc(OCc4ccccc4)c(OC)cc3C2)c1
75 to 77 °C | Cc1nnc(C(=O)CCCCCCOc2ccccc2)o1
127 to 129 °C | CC(=O)C1CCC2C3CCC4CC=CCC4(C)C3C(OC(=O)CI)CC12C (stereo unspecified)
250 °C | COc1ccc(-c2[nH]nc3c2C(=O)c2c(NC(=O)NNC(=O)c4cccc(N)c4)cccc2-3)cc1
146 to 149 °C | Fc1cc(/C=C/c2nc(COc3ccc(CCCCn4ccnn4)cc3)co2)ccc1Cl
91.1 °C | CC(C#N)(C#N)Cc1ccc(Cl)cc1
187 to 188 °C | CCCCCCCCCCCCNC(=O)Nc1sc(C(=O)O)c(C)c1C(=O)OC(C)(C)C
58 to 71 °C | CCCCCCCCNC(=O)N1CCC(S(=O)(=O)c2ccc(CCNC[C@H](O)COc3ccc(O)c(C)c3)cc2)CC1
193 to 194 °C | Cc1c(-c2ccccc2)oc2c(C(=O)NCCCCl)cccc2c1=O
32 to 34 °C | O=Cc1cc([N+](=O)[O-])ccc1OC(F)(F)F
110 to 112 °C | Cc1nc(Cl)c([N+](=O)[O-])c(NCCNC(=O)OC(C)(C)C)c1C
211 °C | CC(=O)Nc1c(Cl)c(C(C)(C)C)nn1-c1c(Cl)cc(C(F)(F)F)cc1Cl
210 °C | CNC(=O)c1ccc(C=CC(=O)OC)cc1
> 270 °C | CCc1nc2c(N)nc3cc(-c4cnc5ccccc5c4)cnc3c2n1CC(C)(C)O
162 to 164 °C | CNC(=O)C1=CC(CF)(CF)Oc2ccc(C(F)(F)F)cc21
113 to 115 °C | COc1cc(/C=C/C(=O)C#CCO)cc(OC)c1OC
152 to 155 °C | CC(=O)NCc1ccc(CN2CCN(c3nccc(N(C)C)n3)CC2)cc1
142 to 144 °C | O=[N+]([O-])c1c(-c2ccccc2)nn(CCCn2nc(-c3ccccc3)c([N+](=O)[O-])c2NCc2ccccc2)c1NCc1ccccc1

melting point | SMILES
103 to 108 °C | Fc1nc(Oc2ccc(CCNc3ncnc4nccnc34)cc2)c(F)c(C(F)(F)F)c1F
210 to 212 °C | N#Cc1cnc(-c2c(Cl)cc(C(F)(F)F)cc2Cl)[nH]1
115 °C | C#CCOC(=O)C1=C(C)NC(C)=C(C(=O)OC)C1c1ccccc1C(F)(F)F (stereo unspecified)
> 30 °C | Cn1c(-c2ccccc2)cc(=O)c2cc(C(=O)O)ccc21
136 to 141 °C | COC(=O)c1ccc(-c2cccc([N+](=O)[O-])c2)cc1
184 to 185 °C | O=C(Nc1cnc(-c2ccccc2)nc1C(=O)O)OCc1cc2cc(-c3ccccc3)ccc2o1
172 to 175 °C | O=C(O)c1ccc2cnn(C3CCCC3)c2c1
83 to 84 °C | CCOC(=O)c1c(CC)nn2c(-c3ccccc3)ccnc12
259 °C | CS(=O)(=O)c1cccc(NC(=O)c2cnn3c(C(F)(F)F)cc(-c4ccc(C(F)(F)F)cc4)nc23)c1
100 to 104 °C | OC1(c2cccn2Cc2ccccc2F)CCN(CCCc2noc3cc(F)ccc23)CC1
93 to 94 °C | O=C(Cc1ccccc1)N1CCN(c2ccc(Cl)cc2)CC1
178 to 179 °C | CC(O)=C(C#N)C(=O)Nc1ccc(OC(F)(F)F)c(Br)c1
72.5 to 73.5 °C | CCOC(=O)c1ccc(OCCCCCCCCCCCCCCOc2ccc(Cl)cc2)cc1
195 to 196 °C | COc1c(CO)n(C)c(=O)c2ccc(Cl)cc12
130 °C | COc1ccc2ccc(NC(=O)c3cccc(N(C)C)c3)nc2n1
170 °C | COC1(OC)C(=O)Nc2ccc(C(=O)c3ccc(Cl)cc3)cc21
217 to 218 °C | Cc1cccc2c(=O)[nH]c(N3CCC(N(C)C)CC3)cc12
150 °C | COc1ccc(S(=O)(=O)N(CC(N)=O)c2ccc(Cl)cc2Cc2ccccc2Cl)cc1
114 to 116 °C | COc1cc(N)c(Cl)cc1C(=O)NC1CCN(CC2CCN(C(=O)c3ccccc3)CC2)CC1
73 °C | Cc1cc2c(cc1Br)C(C)(C)CCC2(C)C
195 to 197 °C | N#Cc1cc(Cn2cncn2)ccc1-c1ccc(O)c(Cl)c1
184 to 186 °C | COC(=O)N1Cc2cc(OC)ccc2C(Cc2c(Cl)cncc2Cl)=N1
85 to 86 °C | CCNC(=O)n1nc(Oc2c(Cl)cc(C(F)(F)F)cc2Cl)c(Cl)c1C
220 °C | CCCCc1nn(Cc2ccc(C(=O)O)cc2)c2ccccc2c1=O

melting point | SMILES
130 to 132 °C | CCOC(=O)c1c(N=Cc2ccc(-c3cccs3)s2)sc(N=Cc2ccc(-c3cccs3)s2)c1C(=O)OCC
151 to 152 °C | O=C(C(=O)N1C(=O)CC[C@H]1C(=O)O)c1ccccc1
164 to 166 °C | CC(=O)n1ncn(N=Cc2cccnc2)c1=O
42 to 43 °C | CCCCCCOC(=O)c1nc2cc(Cl)ccc2o1
107 to 109 °C | COC1(c2cnc(OCc3ccc(/C(C)=N/O)cc3)s2)CCOCC1
116 to 121 °C | COC(N)=CC(=NC#N)OC
210 °C | Cc1c(C#N)[nH]n(-c2ccc(Cl)c(Cl)c2)c1=O
362 to 363 °C | COc1ccccc1-n1c(=O)[nH]c2c(C(N)=O)nc(-c3ccc(O)cc3)nc21
> 350 °C | O=c1[nH]c2cc(Cl)ccc2c(O)c1-c1cccc(I)c1
103 to 107 °C | CC1OC2c3cc(F)ccc3N3CCC2(CC3)O1 (stereo unspecified)
204 °C | COc1cc(C(=O)N2Cc3ccc(C(=O)NCc4ccccc4C)n3Cc3ccccc32)ccc1-c1ccccc1C
165 to 166 °C | OCC1(Oc2ccc3c(c2)c(-c2cc4cccnc4[nH]2)cn3C2(CO)CCC2)CCC1
114 to 115 °C | C=CCOC(=O)c1c(C)nc2c(cnn2CCC#CC)c1N
146 °C | COC(=O)CCc1cc2nc(Cl)ccc2n1S(=O)(=O)c1ccc2ncsc2c1
54 °C | NCCc1ccc(-n2nc(C(F)(F)F)cc2C(F)(F)F)cc1
103 to 105 °C | CCCCc1nn(-c2cc(NC(=O)CC)ccc2Cl)c(=O)n1Cc1ccc(-c2ccccc2S(=O)(=O)NC(C)(C)C)cc1F
181 to 182 °C | N#CC1CCc2c([nH]c3ccc(Cl)cc23)C1 (stereo unspecified)
256 to 258 °C | COc1cc2nc(N3CCN(C(=O)C4=CCCC4)CC3)nc(N)c2cc1OC
195 °C | Cc1ccc(-c2nccc3c(CO)cccc23)cc1
240 to 241 °C | O=C(O)C1=Cc2cc(F)cc(Cl)c2OC1C(F)(F)F (stereo unspecified)
126 to 127 °C | COc1ccc(-c2nc(Cn3ccnn3)co2)cc1

SMILES | melting point
CCN1C(=O)CN=C(c2ccccc2F)c2cc(C(C)N)ccc21 (stereo unspecified) | 53 to 55 °C
O=C1c2ccccc2OCC1Br (stereo unspecified) | 48 to 51 °C
CC12CC(N3CCCCC3)C(O)CC1CCC1C2CCC2(C)C(O)C(N3CCC4(CC3)OCCO4)CC12 (stereo unspecified) | 183 to 185 °C
